Where a SMILES comes first, the peptide text is derived from it. Bridges are numbered along the chain shown (N, C = ends). [ ]: non-standard residue; d: D form. The star is where a group is joined. ξ: configuration not given here. Phe(4-COOH) = N[C@@H](Cc1ccc(C(=O)O)cc1)C(=O)O; Bip = N[C@@H](Cc1ccc(-c2ccccc2)cc1)C(=O)O; Phe(3-Me) = Cc1cccc(C[C@H](N)C(=O)O)c1; Val(3-OH) = CC(C)(O)[C@H](N)C(=O)O; 4Pal = N[C@@H](Cc1ccncc1)C(=O)O; 3Thi = N[C@@H](Cc1ccsc1)C(=O)O; Cha = N[C@@H](CC1CCCCC1)C(=O)O; Cit = NC(=O)NCCC[C@H](N)C(=O)O; Thr(3ξ) = CC(O)[C@H](N)C(=O)O; Carboxymethyl = O=C(O)C*; NMeA = CN[C@@H](C)C(=O)O; Aun = NCCCCCCCCCCC(=O)O; Dab = NCC[C@H](N)C(=O)O; AEEA = NCCOCCOCC(=O)O; Piv = CC(C)(C)C(=O)*
Each molecule was assayed against T1, PD-1/PD-L1 interaction (PE-labeled human PD-L1-Ig binding to Jurkat cell line over-expressing human PD-1) (Homo sapiens, UniProt Q15116) (assay: Jurkat-PD-1 Cell Binding High-Content Screening Assay (CBA)). Settings: Jurkat-hPD-1 cells, PE-labeled PD-L1-Ig 20 nM final; read-out: Jurkat HPD1 PDL1 IC50.
T1 construct: expressed in transfected cells; host or cells: Jurkat
T1 sequence (Q15116 25-288): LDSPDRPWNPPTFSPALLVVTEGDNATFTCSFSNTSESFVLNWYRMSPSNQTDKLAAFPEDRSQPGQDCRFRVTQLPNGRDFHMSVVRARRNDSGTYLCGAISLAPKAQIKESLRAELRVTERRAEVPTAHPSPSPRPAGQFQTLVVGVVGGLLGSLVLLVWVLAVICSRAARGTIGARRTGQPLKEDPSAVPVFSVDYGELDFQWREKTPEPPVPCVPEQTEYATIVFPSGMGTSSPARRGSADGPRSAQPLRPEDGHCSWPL
Method in brief: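 Read-out: high-content imaging of cell-bound PE fluorescence, with Hoechst 33342 nuclear counterstain after paraformaldehyde fixation. Before labeled ligand (20 nM final, 1 h) was added, compound sat on the cells for 2 h at 37 °C in DMEM/10% FCS.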
Work on `CC(=O)NCCCC[C@@H]1NC(=O)[C@H](Cc2ccc(-c3ccccc3)cc2)NC(=O)[C@H](Cc2ccc(O)cc2)NC(=O)[C@H](Cc2cccc(C)c2)NC(=O)[C@H](CC(=O)O)NC(=O)[C@H](Cc2ccc(OCC(=O)O)cc2)NC(=O)[C@H](C(C)O)NC(=O)CSC[C@@H](C(=O)N[C@@H](CCN)C(=O)NCCCCCCCCCCC(=O)O)NC(=O)[C@H](C(C)O)NC(=O)[C@H](C(C)C)NC(=O)[C@H](CC2CCCCC2)NC(=O)[C@H](CCN)NC(=O)[C@@H](CC(C)C)NC(=O)[C@H](C)N(C)C1=O` (stereo partly drawn) [Example 2451] ({CH2CO}-[Thr(3ξ)]Y(Carboxymethyl)D[Phe(3-Me)]Y[Bip]K(Ac)[NMeA][dL][Dab][Cha]V[Thr(3ξ)]C[Dab][Aun]-OH; thioether N-14) yielded an IC50 of 13.9 nM.
`Cc1cccc(C[C@@H]2NC(=O)[C@H](CC(=O)O)NC(=O)[C@H](Cc3ccc(OCC(=O)O)cc3)NC(=O)[C@H](C(C)O)NC(=O)CSC[C@@H](C(=O)N[C@H](CC(N)=O)C(=O)NCCCCCCCCCCC(=O)O)NC(=O)[C@H](C(C)O)NC(=O)[C@H](C(C)C)NC(=O)[C@H](CC3CCCCC3)NC(=O)[C@H](CCN)NC(=O)[C@@H](CC(C)C)NC(=O)[C@H](C)N(C)C(=O)[C@H](CCCCNC(=O)C(C)(C)C)NC(=O)[C@H](Cc3ccc(-c4ccccc4)cc3)NC(=O)[C@H](Cc3ccc(O)cc3)NC2=O)c1` (stereo partly drawn) [Example 2452] ({CH2CO}-[Thr(3ξ)]Y(Carboxymethyl)D[Phe(3-Me)]Y[Bip]K(Piv)[NMeA][dL][Dab][Cha]V[Thr(3ξ)]C[dN][Aun]-OH; thioether N-14) showed an IC50 of 12.2 nM.
`CC(C)C[C@H]1NC(=O)[C@H](C)N(C)C(=O)[C@H](C(C)C)NC(=O)[C@H](Cc2ccc(-c3ccccc3)cc2)NC(=O)[C@H](C(C)C)NC(=O)[C@H](Cc2c[nH]c3ccccc23)NC(=O)[C@H](CC(=O)O)NC(=O)[C@H](Cc2ccc(OCC(=O)O)cc2)NC(=O)[C@H](Cc2ccc(OCC(=O)O)cc2)NC(=O)CSC[C@@H](C(=O)NCCOCCOCC(=O)NCCCCCCCCCCC(=O)O)NC(=O)[C@H](CO)NC(=O)[C@H](C(C)C)NC(=O)[C@H](CC2CCCCC2)NC(=O)[C@H](CCN)NC1=O` [Example 2453] ({CH2CO}-Y(Carboxymethyl)Y(Carboxymethyl)DWV[Bip]V[NMeA][dL][Dab][Cha]VSC[AEEA][Aun]-OH; thioether N-14) gave an IC50 of 13.1 nM.
In the case of `Cc1cccc(C[C@@H]2NC(=O)[C@H](CC(=O)O)NC(=O)[C@H](Cc3ccc(OCC(=O)O)cc3)NC(=O)[C@H](Cc3ccncc3)NC(=O)CSC[C@@H](C(=O)N[C@@H](CCN)C(=O)NCCCCCCCCCCC(=O)O)NC(=O)[C@H](CO)NC(=O)[C@H](CO)NC(=O)[C@H](CC3CCCCC3)NC(=O)[C@H](CCN)NC(=O)[C@@H](CC(C)C)NC(=O)[C@H](C)N(C)C(=O)[C@H](Cc3ccc(OCC(=O)O)cc3)NC(=O)[C@H](Cc3ccc(-c4ccccc4)cc3)NC(=O)[C@H](Cc3ccc(OCC(=O)O)cc3)NC2=O)c1` [Example 2454] ({CH2CO}-[4Pal]Y(Carboxymethyl)D[Phe(3-Me)]Y(Carboxymethyl)[Bip]Y(Carboxymethyl)[NMeA][dL][Dab][Cha]SSC[Dab][Aun]-OH; thioether N-14), the IC50 is reported as 11.1 nM.

Same assay, conditions: PE-labeled PD-L1-Ig 20 nM final, Jurkat-hPD-1 cells; read-out: Jurkat HPD1 PDL1 IC50
For `CC(C)C[C@H]1NC(=O)[C@H](C)N(C)C(=O)[C@H](C(C)C)NC(=O)[C@H](Cc2ccc(-c3ccccc3)cc2)NC(=O)[C@H](C(C)C)NC(=O)[C@H](Cc2c[nH]c3ccccc23)NC(=O)[C@H](CC(=O)O)NC(=O)[C@H](Cc2ccc(OCC(=O)O)cc2)NC(=O)[C@H](Cc2ccc(OCC(=O)O)cc2)NC(=O)CSC[C@@H](C(=O)NCCOCCOCC(=O)NCCCCCCCCCCC(=O)O)NC(=O)[C@H](CO)NC(=O)[C@H](C(C)(C)O)NC(=O)[C@H](CC2CCCCC2)NC(=O)[C@H](CCN)NC1=O` [Example 2455] ({CH2CO}-Y(Carboxymethyl)Y(Carboxymethyl)DWV[Bip]V[NMeA][dL][Dab][Cha][Val(3-OH)]SC[AEEA][Aun]-OH; thioether N-14), the IC50 was 8.4 nM.
`CC(C)C[C@H]1NC(=O)[C@H](C)N(C)C(=O)[C@H](CCCNC(N)=O)NC(=O)[C@H](Cc2ccc(-c3ccccc3)cc2)NC(=O)[C@H](C(C)C)NC(=O)[C@H](Cc2c[nH]c3ccccc23)NC(=O)[C@H](CC(=O)O)NC(=O)[C@H](Cc2ccc(OCC(=O)O)cc2)NC(=O)[C@H](Cc2ccc(OCC(=O)O)cc2)NC(=O)CSC[C@@H](C(=O)NCCOCCOCC(=O)NCCCCCCCCCCC(=O)O)NC(=O)[C@H](CO)NC(=O)[C@H](C(C)(C)O)NC(=O)[C@H](CC2CCCCC2)NC(=O)[C@H](CCN)NC1=O` [Example 2456] ({CH2CO}-Y(Carboxymethyl)Y(Carboxymethyl)DWV[Bip][Cit][NMeA][dL][Dab][Cha][Val(3-OH)]SC[AEEA][Aun]-OH; thioether N-14) was tested, and the IC50 was 12.5 nM.
`Cc1cccc(C[C@@H]2NC(=O)[C@H](CC(=O)O)NC(=O)[C@H](Cc3ccc(OCC(=O)O)cc3)NC(=O)[C@H](Cc3ccsc3)NC(=O)CSC[C@@H](C(=O)N[C@@H](CCN)C(=O)NCCCCCCCCCCC(=O)O)NC(=O)[C@H](CO)NC(=O)[C@H](C(C)(C)O)NC(=O)[C@H](CC3CCCCC3)NC(=O)[C@H](Cc3cnc[nH]3)NC(=O)[C@@H](CC(C)C)NC(=O)[C@H](C)N(C)C(=O)[C@H](Cc3ccc(OCC(=O)O)cc3)NC(=O)[C@H](Cc3ccc(-c4ccccc4)cc3)NC(=O)[C@H](Cc3ccc(OCC(=O)O)cc3)NC2=O)c1` [Example 2457] ({CH2CO}-[3Thi]Y(Carboxymethyl)D[Phe(3-Me)]Y(Carboxymethyl)[Bip]Y(Carboxymethyl)[NMeA][dL]H[Cha][Val(3-OH)]SC[Dab][Aun]-OH; thioether N-14) was tested, and the IC50 was 41.2 nM.
`CC(C)C[C@@H]1NC(=O)[C@H](Cc2c[nH]c3ccccc23)NC(=O)[C@H](CC(=O)O)NC(=O)[C@H](Cc2ccc(OCC(=O)O)cc2)NC(=O)[C@H](Cc2ccc(OCC(=O)O)cc2)NC(=O)CSC[C@@H](C(=O)NCCOCCOCC(=O)NCCCCCCCCCCC(=O)O)NC(=O)[C@H](CCCNC(N)=O)NC(=O)[C@H](C(C)(C)O)NC(=O)[C@H](CC2CCCCC2)NC(=O)[C@H](CCN)NC(=O)[C@@H](CC(C)C)NC(=O)[C@H](C)N(C)C(=O)[C@H](C(C)C)NC(=O)[C@H](Cc2ccc(-c3ccccc3)cc2)NC1=O` [Example 2458] ({CH2CO}-Y(Carboxymethyl)Y(Carboxymethyl)DWL[Bip]V[NMeA][dL][Dab][Cha][Val(3-OH)][Cit]C[AEEA][Aun]-OH; thioether N-14) showed an IC50 of 22.1 nM.
With `CC(=O)NCCCC[C@@H]1NC(=O)[C@H](C(C)(C)O)NC(=O)[C@H](CC2CCCCC2)NC(=O)[C@H](CCN)NC(=O)[C@@H](CC(C)C)NC(=O)[C@H](C)N(C)C(=O)[C@H](CCC(N)=O)NC(=O)[C@H](Cc2ccc(-c3ccccc3)cc2)NC(=O)[C@H](CC(C)C)NC(=O)[C@H](Cc2c[nH]c3ccccc23)NC(=O)[C@H](CC(=O)O)NC(=O)[C@H](Cc2ccc(C(=O)O)cc2)NC(=O)[C@H](Cc2ccc(OCC(=O)O)cc2)NC(=O)CSC[C@@H](C(=O)NCCOCCOCC(=O)NCCCCCCCCCCC(=O)O)NC1=O` [Example 2459] ({CH2CO}-Y(Carboxymethyl)[Phe(4-COOH)]DWL[Bip]Q[NMeA][dL][Dab][Cha][Val(3-OH)]K(Ac)C[AEEA][Aun]-OH; thioether N-14) the IC50 was 45.1 nM.
For `CC(=O)NCCCC[C@@H]1NC(=O)[C@H](C(C)(C)O)NC(=O)[C@H](CC2CCCCC2)NC(=O)[C@H](CCN)NC(=O)[C@@H](CC(C)C)NC(=O)[C@H](C)N(C)C(=O)[C@H](C(C)C)NC(=O)[C@H](Cc2ccc(-c3ccccc3)cc2)NC(=O)[C@H](CC(C)C)NC(=O)[C@H](Cc2c[nH]c3ccccc23)NC(=O)[C@H](CC(=O)O)NC(=O)[C@H](Cc2ccc(C(=O)O)cc2)NC(=O)[C@H](Cc2ccc(OCC(=O)O)cc2)NC(=O)CSC[C@@H](C(=O)NCCOCCOCC(=O)NCCCCCCCCCCC(=O)O)NC1=O` [Example 2460] ({CH2CO}-Y(Carboxymethyl)[Phe(4-COOH)]DWL[Bip]V[NMeA][dL][Dab][Cha][Val(3-OH)]K(Ac)C[AEEA][Aun]-OH; thioether N-14), the IC50 was 14.9 nM.
`Cc1cccc(C[C@@H]2NC(=O)[C@H](CC(=O)O)NC(=O)[C@H](Cc3ccc(C(=O)O)cc3)NC(=O)[C@H](Cc3ccncc3)NC(=O)CSC[C@@H](C(=O)NCCOCCOCC(=O)NCCCCCCCCCCC(=O)O)NC(=O)[C@H](CO)NC(=O)[C@H](C(C)(C)O)NC(=O)[C@H](CC3CCCCC3)NC(=O)[C@H](CCN)NC(=O)[C@@H](CC(C)C)NC(=O)[C@H](C)N(C)C(=O)[C@H](Cc3ccc(OCC(=O)O)cc3)NC(=O)[C@H](Cc3ccc(-c4ccccc4)cc3)NC(=O)[C@H](Cc3ccc(OCC(=O)O)cc3)NC2=O)c1` [Example 2463] ({CH2CO}-[4Pal][Phe(4-COOH)]D[Phe(3-Me)]Y(Carboxymethyl)[Bip]Y(Carboxymethyl)[NMeA][dL][Dab][Cha][Val(3-OH)]SC[AEEA][Aun]-OH; thioether N-14) gave an IC50 of 69.3 nM.
For `Cc1cccc(C[C@@H]2NC(=O)[C@H](CC(=O)O)NC(=O)[C@H](Cc3ccc(C(=O)O)cc3)NC(=O)[C@H](Cc3ccncc3)NC(=O)CSC[C@@H](C(=O)NCCOCCOCC(=O)NCCCCCCCCCCC(=O)O)NC(=O)[C@H](Cc3cnc[nH]3)NC(=O)[C@H](C(C)(C)O)NC(=O)[C@H](CC3CCCCC3)NC(=O)[C@H](CCN)NC(=O)[C@@H](CC(C)C)NC(=O)[C@H](C)N(C)C(=O)[C@H](Cc3ccc(OCC(=O)O)cc3)NC(=O)[C@H](Cc3ccc(-c4ccccc4)cc3)NC(=O)[C@H](Cc3ccc(OCC(=O)O)cc3)NC2=O)c1` [Example 2464] ({CH2CO}-[4Pal][Phe(4-COOH)]D[Phe(3-Me)]Y(Carboxymethyl)[Bip]Y(Carboxymethyl)[NMeA][dL][Dab][Cha][Val(3-OH)]HC[AEEA][Aun]-OH; thioether N-14), the IC50 was 46 nM.

Reference: patent US20260070945A1, “MACROCYCLIC IMMUNOMODULATORS” (Bristol-Myers Squibb Company, priority 2022, published 2026)
